Where two headings read alike, the source gives them in different places.

This passage reports IC50 results from patent US11149011B2, “Compounds and methods for IDO and TDO modulation, and indications therefor” (Plexxikon Inc., priority 2018, dated 2021).

One assay has as its target T1, IDO1 (Homo sapiens, UniProt P14902).
T1 construct: His tag (N); made in house; host or cells: E. coli
Briefly: IDO enzymatic assay. The format is biochemical. The method, then: (§1) Human IDO or TDO with N-terminal His tag is purified in E. coli. The IDO enzymatic assay is performed using 6 nM IDO and 10 μM L-Trp in the presence of 10 mM ascorbic acid, 5 μM methylene blue, 100 nM catalase and 0.01% Tween 20 in 50 mM sodium phosphate buffer (pH 6.5). 19 μL of above reaction mixture is added to wells of 384 well reaction plate containing 1 μL of various concentrations of test compound or DMSO vehicle and incubated for 20 minutes at room temperature. The TDO enzymatic reaction assay is performed using 1 nM TDO and 350 μM L-Trp in the presence of 10 mM ascorbic acid, 0.4 μM methylene blue, 100 nM catalase and 0.01% Tween 20 in 50 mM sodium phosphate buffer (pH 6.5). 19 μL of above reaction mixture is added to wells of 384 well reaction plate containing 1 μL of various concentrations of test compound or DMSO vehicle and incubated for 70 minutes at room temperature. 16 wells containing all the components of reaction mixture and 5% DMSO serve as high control. 16 well containing all the components except enzyme of reaction mixture and 5% DMSO serves as low control. Both IDO and TDO enzymatic reactions are stopped by addition of 4 μL of 30% TCA and incubated 30 minutes at 50° C. to hydrolyze N-formylkynurenine produced by IDO or TDO to kynurenine. Upon measuring the kynurenine level, the percentage inhibition is calculated at individual concentrations relative to high and low controls. The data is analyzed by using nonlinear regression to generate IC50 values.

The next assay concerns the target T2, TDO (Homo sapiens, UniProt P48775).
T2 construct: His tag (N); made in house; host or cells: E. coli
Put plainly: TDO enzymatic assay. The following applies: geometric mean; read-out: TDO GMean: IC50 (μM) (Biochemical Assay). The method, then:
as §1

Assay [1] concerns the target T3, IDO1-expressing HEK293 cell clones (Homo sapiens, UniProt P14902).
T3 construct: expressed in transfected cells; host or cells: HEK293
Put plainly: Cell based kynurenine assay, IDO1-expressing HEK293 cell clones. How it is done: (§2) IDO1-expressing or TDO-expressing HEK293 cell clones are generated upon stable transfection of plasmids expressing human IDO or human TDO under the control of CMV promoter. Cells are selected in DMEM media supplemented with 10% fetal bovine serum and 1 mg/ml G418 at 37° C. in a humidified incubator supplied with 5% CO2. The assays are performed as follows.
(§3) Cells were seeded in a 96 well plate in 50 μL of culture media at a density of 2.5×10^4 per well. Serial dilutions of compounds (in total volume of 50 μL culture media) are added into cells. 4 wells containing 0.2% DMSO treated cells serve as high controls and 4 wells containing media only with 0.2% DMSO serve as low controls. After 24 hours of incubation, the supernatant was transferred to a 384 well reaction plate and the kynurenine level determined. The percentage inhibition at individual concentrations relative to high and low controls is calculated. The data is analyzed by using nonlinear regression to generate IC50 values.

Assay [2] has as its target T4, TDO-expressing HEK293 cell clones (Homo sapiens, UniProt P48775).
T4 construct: expressed in transfected cells; host or cells: HEK293
Put plainly: Cell based kynurenine assay, TDO-expressing HEK293 cell clones. The following applies: HEK293 cells, 24 hours of incubation, geometric mean; read-out: HEK293 TDO Kynurenine GMean IC50 (μM) (Cellular Assay). How it is done:
as §2, §3

[3] abbreviates: geometric mean, read-out: IDO1 GMean: IC50 (μM) (Biochemical Assay).
Where [4] appears, read: HEK293 cells, 24 hours of incubation, geometric mean, read-out: HEK293 IDO1 Kynurenine GMean IC50 (μM) (Cellular Assay).
Where [5] appears, read: comparative examples 4,6 vs 5,7 indazole, cellular potency, read-out: hIDO1.

T4 sequence (P48775 whole entry): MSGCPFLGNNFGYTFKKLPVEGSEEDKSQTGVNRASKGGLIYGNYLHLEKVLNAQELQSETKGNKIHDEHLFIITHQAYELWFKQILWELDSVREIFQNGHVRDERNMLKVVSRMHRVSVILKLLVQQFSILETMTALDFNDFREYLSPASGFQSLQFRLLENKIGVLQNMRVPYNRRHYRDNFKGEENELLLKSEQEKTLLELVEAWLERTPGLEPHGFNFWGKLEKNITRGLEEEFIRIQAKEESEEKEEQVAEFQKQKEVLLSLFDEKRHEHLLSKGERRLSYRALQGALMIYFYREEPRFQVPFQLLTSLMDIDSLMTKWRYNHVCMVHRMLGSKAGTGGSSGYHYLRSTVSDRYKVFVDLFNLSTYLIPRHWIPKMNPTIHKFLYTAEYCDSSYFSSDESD
T2 sequence (P48775 whole entry): as above
T1 sequence (P14902 whole entry): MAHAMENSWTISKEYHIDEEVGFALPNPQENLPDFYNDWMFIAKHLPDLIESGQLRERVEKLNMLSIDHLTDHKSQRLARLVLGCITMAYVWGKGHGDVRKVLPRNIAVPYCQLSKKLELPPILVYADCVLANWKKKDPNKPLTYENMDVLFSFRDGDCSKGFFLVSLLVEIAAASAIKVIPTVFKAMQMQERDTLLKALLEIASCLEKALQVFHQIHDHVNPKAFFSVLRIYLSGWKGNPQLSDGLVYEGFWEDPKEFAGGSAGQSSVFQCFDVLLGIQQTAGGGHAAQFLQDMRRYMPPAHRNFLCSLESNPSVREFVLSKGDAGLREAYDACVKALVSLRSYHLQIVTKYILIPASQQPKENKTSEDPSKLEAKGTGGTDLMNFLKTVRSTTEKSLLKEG
T3 sequence (P14902 whole entry): as above

Take `OC1(c2cc(Cl)cc3cn[nH]c23)CC(C2CC2)(C2CC2)C1` [Compound P-0108, 1-(5-chloro-1H-indazol-7-yl)-3,3-dicyclopropylcyclobutan-1-ol]: the IC50 (on IDO1 (setting [3]); on TDO; in assay [1] (setting [4]); in assay [2]) was 0.0001 to 10 µM in each case.

Turning to `CC(C)(C1CCN(C(=O)NC2CC(F)(F)C2)CC1)C(O)c1cc(Cl)cc2[nH]ncc12` (centres unmarked) [Compound P-0094, 4-(1-(6-chloro-1H-indazol-4-yl)-1-hydroxy-2-methylpropan-2-yl)-N-(3,3-difluorocyclobutyl)piperidine-1-carboxamide], the IC50 (on IDO1 (setting [3]); on TDO; in assay [1] (setting [4]); in assay [2]) was 0.0001 to 10 µM throughout.

As to `CC(C)(C1CCN(C(=O)NCc2ccc(C#N)cc2)CC1)C(O)c1cc(Cl)cc2[nH]ncc12` (centres unmarked) [Compound P-0118, 4-(1-(6-chloro-1H-indazol-4-yl)-1-hydroxy-2-methylpropan-2-yl)-N-(4-cyanobenzyl)piperidine-1-carboxamide], the IC50 (on IDO1 (setting [3]); on TDO; in assay [1] (setting [4]); in assay [2]) was 0.0001 to 10 µM throughout.

Consider `CC(C)(C1CCN(C(=O)NC[C@H]2CCCO2)CC1)C(O)c1cc(Cl)cc2[nH]ncc12` (stereo partly drawn) [Compound P-0115, 4-(1-(6-chloro-1H-indazol-4-yl)-1-hydroxy-2-methylpropan-2-yl)-N-(((R)-tetrahydrofuran-2-yl)methyl)piperidine-1-carboxamide], for which the IC50 (at IDO1 (setting [3]); at TDO; in assay [1] (setting [4]); in assay [2]) was 0.0001 to 10 µM throughout.

In the case of `OC1(c2cc(Cl)cc3cn[nH]c23)CC2(CCC2)C1`, in assay [1] (setting [5]), the IC50 is at least 10 µM.

`OC1(c2cc(Cl)cc3[nH]ncc23)CC2(CCC2)C1`: the IC50 in assay [1] (setting [5]) is at least 10 µM.

On to `COCCONC(=O)N1CCC(C(C)(C)[C@H](O)c2cc(Cl)cc3cn[nH]c23)CC1` [Compound P-0062, (S)-4-(1-(5-chloro-1H-indazol-7-yl)-1-hydroxy-2-methylpropan-2-yl)-N-(2-methoxyethoxy)piperidine-1-carboxamide], for which the IC50 (on IDO1 (setting [3]); on TDO; in assay [1] (setting [4]); in assay [2]) was 0.0001 to 10 µM throughout.

As for `CS(=O)(=O)CCNC(=O)N1CCC(C(F)(F)C(=O)c2c(F)c(Cl)cc3cn[nH]c23)CC1` [Compound P-0038, 4-(2-(5-chloro-6-fluoro-1H-indazol-7-yl)-1,1-difluoro-2-oxoethyl)-N-(2-(methylsulfonyl)ethyl)piperidine-1-carboxamide], the IC50 at IDO1 (setting [3]) was 0.0001 to 10 µM; at TDO it was 0.0001 to 10 µM; in assay [1] (setting [4]) it was 0.0001 to 10 µM; in assay [2] it was over 10 µM.

Take `CC(C)(C)OC(=O)N1CCC(C(C)(C)[C@@H](O)c2cc(Cl)cc3[nH]ncc23)CC1` [Compound P-0144, tert-butyl (R)-4-(1-(6-chloro-1H-indazol-4-yl)-1-hydroxy-2-methylpropan-2-yl)piperidine-1-carboxylate]: the IC50 is 0.0001 to 10 µM at IDO1 (setting [3]), 0.0001 to 10 µM at TDO, over 10 µM in assay [1] (setting [4]) and 0.0001 to 10 µM in assay [2].

Take `CC1(CNC(=O)N2CCC(C(C)(C)[C@H](O)c3cc(Cl)cc4cn[nH]c34)CC2)COC1` [Compound P-0031, (S)-4-(1-(5-chloro-1H-indazol-7-yl)-1-hydroxy-2-methylpropan-2-yl)-N-((3-methyloxetan-3-yl)methyl)piperidine-1-carboxamide]: the IC50 at IDO1 (setting [3]) was 0.0001 to 10 µM; at TDO, 0.0001 to 10 µM; in assay [1] (setting [4]) it was 0.0001 to 10 µM; in assay [2], over 10 µM.

In the case of `CC(C)(C1CCN(C(=O)NCC(F)F)CC1)C(O)c1cc(Cl)cc2[nH]ncc12` (centres unmarked) [Compound P-0091, 4-(1-(6-chloro-1H-indazol-4-yl)-1-hydroxy-2-methylpropan-2-yl)-N-(2,2-difluoroethyl)piperidine-1-carboxamide], the IC50 (at IDO1 (setting [3]); on TDO; in assay [1] (setting [4]); in assay [2]) was 0.0001 to 10 µM throughout.

Turning to `CC(C)(C1CCN(C(=O)[C@H]2CCNC2)CC1)[C@H](O)c1cc(Cl)cc2cn[nH]c12` [Compound P-0141, (4-((S)-1-(5-chloro-1H-indazol-7-yl)-1-hydroxy-2-methylpropan-2-yl)piperidin-1-yl)((S)-1λ^2-pyrrolidin-3-yl)methanone], the IC50 in assay [1] (setting [4]) was 0.0001 to 10 µM; in assay [2], over 10 µM.

Consider `OC1(c2cc(Cl)cc3[nH]ncc23)CC2(CCOCC2)C1`, for which the IC50 on IDO1 (comparative examples 4,6 vs 5,7 indazole, biochemical potency, read-out: IDO1) was 200 µM; in assay [1] (setting [5]), at least 10 µM.

For `CS(=O)(=O)N1CC(O)(c2cc(Cl)cc3cn[nH]c23)C1` [Compound P-0018, 3-(5-chloro-1H-indazol-7-yl)-1-(methylsulfonyl)azetidin-3-ol], the IC50 (on IDO1 (setting [3]); at TDO; in assay [2]) was 0.0001 to 10 µM throughout.

Turning to `OC1(c2cc(Cl)cc3cn[nH]c23)CC2(CC2)C1` [Compound P-0011, 5-(5-chloro-1H-indazol-7-yl)spiro[2.3]hexan-5-ol], the IC50 (at IDO1 (setting [3]); at TDO; in assay [2]) was 0.0001 to 10 µM throughout.

As for `CC(C)(C1CCN(C(=O)[C@@H]2CCCN2)CC1)[C@H](O)c1cc(Cl)cc2cn[nH]c12` [Compound P-0138, (4-((S)-1-(5-chloro-1H-indazol-7-yl)-1-hydroxy-2-methylpropan-2-yl)piperidin-1-yl)((S)-1λ^2-pyrrolidin-2-yl)methanone], the IC50 in assay [1] (setting [4]) and in assay [2] was 0.0001 to 10 µM in each case.

For the compound `CC(=O)N1CCC(C(F)(F)C(O)c2c(F)c(Cl)cc3cn[nH]c23)CC1` (centres unmarked) [Compound P-0056, 1-(4-(2-(5-chloro-6-fluoro-1H-indazol-7-yl)-1,1-difluoro-2-hydroxyethyl)piperidin-1-yl)ethan-1-one], the IC50 in assay [2] is over 10 µM.

On to `CC(C)(C1CCN(C(=O)[C@@H]2CCNC2)CC1)[C@H](O)c1cc(Cl)cc2cn[nH]c12` [Compound P-0140, (4-((S)-1-(5-chloro-1H-indazol-7-yl)-1-hydroxy-2-methylpropan-2-yl)piperidin-1-yl)((R)-1λ^2-pyrrolidin-3-yl)methanone], for which the IC50 was 0.0001 to 10 µM in assay [1] (setting [4]) and over 10 µM in assay [2].

Turning to `OC1(c2cc(Cl)cc3cn[nH]c23)CC2(CCNCC2)C1` [Compound P-0014, 2-(5-chloro-1H-indazol-7-yl)-7-azaspiro[3.5]nonan-2-ol], the IC50 at IDO1 (setting [3]) was in the range of 0.0001 to 10 µM.

In the case of `CC(C)(C)OC(=O)N1CCC2(CC1)CC(O)(c1cc(Cl)cc3cn[nH]c13)C2` [Compound P-0013, tert-butyl 2-(5-chloro-1H-indazol-7-yl)-2-hydroxy-7-azaspiro[3.5]nonane-7-carboxylate], the IC50 (at IDO1 (setting [3]); on TDO; in assay [2]) was 0.0001 to 10 µM throughout.

Consider `CS(=O)(=O)N1CCC(O)(c2cc(Cl)cc3cn[nH]c23)CC1` [Compound P-0017, 4-(5-chloro-1H-indazol-7-yl)-1-(methylsulfonyl)piperidin-4-ol], for which the IC50 (on IDO1 (setting [3]); on TDO; in assay [2]) was 0.0001 to 10 µM throughout.

In the case of `O=S1(=O)CC2(CC(O)(c3cc(Cl)cc4cn[nH]c34)C2)C1` [Compound P-0057, 6-(5-chloro-1H-indazol-7-yl)-6-hydroxy-2-thiaspiro[3.3]heptane 2,2-dioxide], the IC50 (on IDO1 (setting [3]); at TDO; in assay [2]) was 0.0001 to 10 µM each time.

Consider `CC(C)(C1CCN(C(=O)[C@H]2CCCN2)CC1)[C@H](O)c1cc(Cl)cc2cn[nH]c12` [Compound P-0139, (4-((S)-1-(5-chloro-1H-indazol-7-yl)-1-hydroxy-2-methylpropan-2-yl)piperidin-1-yl)((R)-1λ^2-pyrrolidin-2-yl)methanone], for which the IC50 in assay [1] (setting [4]) and in assay [2] was 0.0001 to 10 µM throughout.
